Data on one molecule can be found in patent US20250302799A1, “PHARMACEUTICAL COMPOSITION CONTAINING FRAXETIN FOR PREVENTION OR TREATMENT OF ENDOMETRIOSIS” (Research & Business Foundation Sungkyunkwan University, priority 2024, published 2025).

Assay type in all cases: cell-based, human
In assay [1] the test system is VK2/E6E7 cells. Nature of the assay: Mitochondrial calcium concentration (rhod-2 staining). The protocol:
(§1) To examine intracellular or mitochondrial calcium concentration changes in endometrial cells induced by fraxetin, the inventors conducted experiments using 3 μM fluo-4 acetoxymethyl ester (AM) (Invitrogen) and 3 μM rhod-2.
(§2) First, cells were cultured in 6-well plates, treated with fraxetin in a dose-dependent manner (0 μM, 5 μM, 10 μM, 20 μM, 50 μM, 100 μM), and incubated at 37° C. in a 5% CO2 incubator for 48 hours. The cells were then detached using trypsin, washed with PBS, and stained with 3 μM fluo-4 or 3 μM rhod-2 for 20 minutes at 37° C. in a 5% CO2 incubator. After staining, the cells were washed with PBS, transferred to FACS tubes, and analyzed by flow cytometry to measure intracellular or mitochondrial calcium concentrations.

For assay [2], the system named is End1/E6E7 cells. Described as above. The protocol:
as §1, §2

Assay [3] relates to End1/E6E7 cells. Nature of the assay: Mitochondrial membrane potential by JC-1 staining. The following applies: End1/E6E7. As to the method: To examine changes in mitochondrial membrane potential (MMP) in endometrial cells induced by fraxetin, the inventors used a mitochondria staining kit (Cat no: CS0390, Sigma-Aldrich) to measure MMP.
In brief, End1/E6E7 and […] endometrial cell lines were cultured in 6-well plates, treated with fraxetin in a dose-dependent manner (0 μM, 5 μM, 10 μM, 20 μM, 50 μM, 100 μM), and incubated at 37° C. in a 5% CO2 incubator for 48 hours. Afterward, the cells were detached using trypsin, centrifuged to obtain cell pellets, resuspended in JC-1 staining solution, and incubated at 37° C. in a 5% CO2 incubator for 20 minutes. The stained cells were centrifuged again, washed with 1X JC-1 staining buffer, and analyzed using flow cytometry to assess changes in mitochondrial membrane potential.

In assay [4] the test system is endometrial cells. Nature of the assay: tiRNA expression by real-time PCR (cell line not stated). The conditions noted are these: following fraxetin treatment. As to the method:
To confirm the expression of tiRNA (tRNA-derived stress-induced RNAs) associated with the development of endometriosis, the inventors conducted real-time PCR.
First, information on candidate tiRNA sequences and mature tRNA sources was obtained from MINTbase (https://cm.jefferson.edu/MINTbase/). miRNA CDNA synthesis was performed using a cDNA kit (Agilent Technologies) to confirm tiRNA expression, with U6 snRNA used for normalization. For transfection of the tiRNA^His GTG inhibitor (5′-AACCGAGAGUACUAACCACUAUACGAUCACCGC-3′) (40 nM), Lipofectamine 2000 was used in Opti-MEM.
For orientation: Real-time PCR tracks product formation cycle by cycle.

The subject of assay [5] is VK2/E6E7 cells. Nature of the assay: Mitochondrial membrane potential by JC-1 staining. The conditions noted are these: VK2/E6E7.
The subject of assay [6] is VK2/E6E7 cells. Nature of the assay: Mitochondrial respiration (XF Cell Mitostress kit). The protocol: (§3) To confirm the effects of fraxetin on mitochondrial respiration in endometrial cells, the inventors used an XF Cell Mitostress kit.
(§4) In brief, endometrial cells were seeded in 24-well plates and cultured at 37° C. in a 5% CO2 incubator for 16 hours, followed by treatment with […]. Subsequently, various mitochondrial respiration parameters were measured by sequential treatment with oligomycin, FCCP, rotenone, and antimycin A in the two cell lines.

For assay [7], the system named is End1/E6E7 cells. Nature of the assay: Mitochondrial respiration (XF Cell Mitostress kit). The protocol: as §3, §4
For assay [8], the system named is VK2/E6E7 cells. Nature of the assay: Intracellular calcium concentration (fluo-4 staining). As to the method:
as §1, §2
For orientation: Calcium flux is commonly read through the fluorescence of an indicator in the cells.

The subject of assay [9] is End1/E6E7 cells. The description is as above. The protocol:
as §1, §2

In assay [10] the test system is VK2/E6E7 cells. Nature of the assay: Cell cycle analysis by flow cytometry (PI). The following applies: VK2/E6E7, 48 hours. As to the method:
(§5) The inventors performed flow cytometry to examine the changes in the cell cycle of endometrial cells induced by fraxetin.
(§6) In brief, 5×10^3 cells of VK2/E6E7, End1/E6E7, and T-HESC were treated with fraxetin in a dose-dependent manner (0 μM, 5 μM, 10 μM, 20 μM, 50 μM, 100 μM) and incubated for 48 hours at 37° C. in a 5% CO2 incubator.
(§7) Afterward, cells were detached from the culture plates using trypsin, washed with 0.1% BSA/PBS, and fixed in 70% ethanol for 24 hours. The cells were then washed with 0.1% BSA/PBS, treated with RNase A (Sigma), and stained with PI. The stained solution transferred to FACS tubes, and fluorescence intensity and cell cycle were analyzed using a flow cytometer.
(In general: In flow cytometry, cells or beads pass a laser one at a time.)

Assay [11] deals with End1/E6E7 cells. Nature of the assay: Cell cycle analysis by flow cytometry (PI). The conditions noted are these: End1/E6E7, 48 hours. The protocol: as §5, §6, §7
Assay [12] relates to endometrial cells. Nature of the assay: Western blot analysis (cell line not stated). As to the method: To analyze protein expression related to the development of endometriosis following fraxetin treatment, the inventors conducted western blot analysis.
Briefly, endometrial cells were treated with fraxetin in a dose-dependent manner or in combination with signaling pathway inhibitors. Total proteins were extracted from the treated cells, and protein quantification was performed using the Bradford protein assay (Bio-Rad, Hercules, CA, USA). The extracted proteins were then denatured at 95° C. for 5 minutes and subjected to electrophoresis on a 10% SDS/PAGE gel before being transferred to a nitrocellulose membrane. The membrane was subsequently incubated with primary and secondary antibodies, and target protein expression was analyzed using chemiluminescence detection reagents (Supersignal West Pico, Pierce, Rockford, IL, USA) with the ChemiDoc EQ system and Quantity One software (Bio-Rad).

The subject of assay [13] is VK2/E6E7 cells. Nature of the assay: Icam1/Vcam1 expression in endometriosis cell line. The protocol:
(§8) The endometrial cell lines VK2/E6E7, End1/E6E7, and normal endometrial stromal cell line T-HESC were purchased from ATCC. The cells were cultured in keratinocyte serum-free medium or DMEM/F12 1:1 medium containing 10% FBS for monolayer culture. Endometrial cell lines (VK2/E6E7,End1/E6E7) and normal cells were cultured at 37° C. in a 5% CO2 incubator.

In assay [14] the test system is End1/E6E7 cells. Nature of the assay: Icam1/Vcam1 expression in endometriosis cell line. As to the method:
as §8

With `COc1cc2ccc(=O)oc2c(O)c1O` [fraxetin], the “mitochondrial calcium ion levels” value in assay [1] (20 μM fraxetin, second value, VK2/E6E7 assumed) is 2.4 fold; in assay [1] (50 μM fraxetin) it was “slight increase”; in [2] (20 μM fraxetin, first value, End1/E6E7 assumed) it was 1.7 fold; in assay [2] (50 μM fraxetin), “slight increase”. Besides, the “relative membrane potential loss rate increase” value in assay [3] worked out at 1.8 fold; in [5], 2.6 fold. Besides, the “mRNA expression of tiRNA^GlyCCC, tiRNA^ValCAC, tiRNA^AspGTC and tiRNA^GluCTC” value in assay [4] is on record as “minimal change”. The “tiRNA^HisGTG expression” value in [4] is “increased by more than twofold”. In addition, the ATP production result in assay [6] is listed as “decreased”; in assay [7], “significantly decreased”. In addition, the basal respiration result in assay [6] is listed as “decreased”; in [7], “significantly decreased”. The maximal respiration result in [7] is “significantly decreased”. For the same molecule, the “reserve respiratory capacity compared to control” value in assay [7] is reported as “halved”. Further, the “calcium levels (upregulated to)” value in [8] was found to be 300%; in [9], 180%. Besides, the “number of cells in the Sub-G1 phase” value in [10] and in assay [11] was “increase” each time. Also, the “level of GRP78 compared to control” value in [12] (20 μM and 50 μM fraxetin) stood at 1.9 fold. The “JNK phosphorylation (remaining)” value in assay [12] (50 μM fraxetin) was “below 50%”. Further, the eIF2α phosphorylation result in assay [12] (fraxetin-treated) is given as “tended to increase”. Also, the “expression levels of Icam1 and Vcam1” value in assay [13] and in [14] was “significant decrease” throughout.
